Laboratory results as given in the Deep4Chem optical property database.

Experiment: solvent given as SMILES

`O=Cc1nc2ccc(C#Cc3ccc(N(c4ccc(C#Cc5ccc6nc(C=O)sc6c5)cc4)c4ccc(C#Cc5ccc6nc(C=O)sc6c5)cc4)cc3)cc2s1` gave an emission maximum (in Cc1ccccc1) of 500 nm.

With `COC(=O)c1ccc2cc(C#N)c3ccc4ccccc4c3c2c1` the emission maximum (in ClC(Cl)Cl) was 422 nm.

`CCn1c2ccccc2c2cc(C#Cc3cc(C#Cc4ccc5c(c4)c4ccccc4n5CC)nc(SC)n3)ccc21` showed an emission maximum (in C1CCOC1) of 449 nm, an emission maximum (in CCOC(C)=O) of 446 nm and an emission maximum (in CN(C)C=O) of 502 nm. The emission maximum (in Cc1ccccc1) was 416 nm and the emission maximum (in ClCCl) was 471 nm.

Work on `COC(=O)C(Cc1ccc2oc(-c3ccc(-n4c5ccccc5c5ccccc54)cc3)nc2c1)NC(=O)OC(C)(C)C` (configuration not stated) yielded an emission maximum (in C1CCCCC1) of 362 nm, an emission maximum (in C1CCOC1) of 429 nm and an emission maximum (in C1COCCO1) of 400 nm. It also gave an emission maximum (in CC1CCCO1) of 404.01 nm, an emission maximum (in CC#N) of 447.01 nm and an emission maximum (in CC(C)(C)O) of 421 nm. The emission maximum (in CC(C)=O) was 432.99 nm, the emission maximum (in CC(C)CC(C)(C)C) was 361.01 nm and the emission maximum (in CC(C)O) was 431 nm. The emission maximum (in CC(O)CO) was 455 nm, the emission maximum (in CCCCCCCO) was 421.99 nm and the emission maximum (in CCCCCCO) was 424 nm. The emission maximum (in CCCCCO) was 409 nm, the emission maximum (in CCCCO) was 430 nm and the emission maximum (in CCO) was 445 nm. It also gave an emission maximum (in CCOC(C)=O) of 409 nm, an emission maximum (in CCOCC) of 402.32 nm and an emission maximum (in CN(C)C=O) of 438.02 nm. The emission maximum (in CO) was 465.98 nm, the emission maximum (in CS(C)=O) was 445.99 nm and the emission maximum (in Cc1ccccc1) was 391.01 nm. It also gave an emission maximum (in OCCO) of 470.01 nm.

Work on `c1ccc2c(-c3cc4c(ccc5sccc54)s3)cccc2c1` yielded an emission maximum (in ClCCl) of 405 nm.

Compound `N#Cc1ccc(/C=C/C=C/C2=NC3C(=O)NC(N)=NC3N2[C@H]2C[C@H](O)[C@@H](CO)O2)cc1` (some centres not stated) has an emission maximum (in C1COCCO1) of 486 nm, an emission maximum (in CC#N) of 526 nm and an emission maximum (in CO) of 522 nm.

For `N#Cc1ccc(C#Cc2ccc(C#Cc3ccccc3C#N)cc2C#N)cc1`, the emission maximum (in ClC(Cl)Cl) was 370 nm.

`COc1cc2sc3nc(-c4ccccc4OC)sc3c2cc1OC` gave an emission maximum (in CS(C)=O) of 438 nm.

With `O=C1/C(=C2\Sc3ccc(S(=O)(=O)Nc4ccccc4)cc3C2=O)Sc2ccc(S(=O)(=O)Nc3ccccc3)cc21` the emission maximum (in C1COCCO1) was 588 nm, the emission maximum (in CN(C)C=O) was 604 nm and the emission maximum (in CO) was 618 nm. It also gave an emission maximum (in CS(C)=O) of 627 nm.

`CCn1c(-c2ccc(N(c3ccccc3)c3cccc4ccccc34)cc2)c(-c2ccc3ccccc3c2)c(-c2ccc3ccccc3c2)c1-c1ccc(N(c2ccccc2)c2cccc3ccccc23)cc1` showed an emission maximum (in CCOC(C)=O) of 434 nm.

`N#Cc1c(-n2c3ccccc3c3ccccc32)cccc1-n1c2ccccc2c2ccccc21` gave an emission maximum (in Cc1ccccc1) of 403 nm and an emission maximum (in O=P(c1ccccc1)(c1ccccc1)c1ccccc1Oc1ccccc1P(=O)(c1ccccc1)c1ccccc1) of 415 nm.

Compound `CC(C)(C)c1ccc2c(c1)oc1nc3oc4ccc(-n5c6ccccc6c6ccccc65)cc4c3cc12` has an emission maximum (in ClC(Cl)Cl) of 417 nm.

Work on `F[B-]1(F)n2c(nc(Br)c2Br)-c2cccc[n+]21` yielded an emission maximum (in C1CCCCC1) of 463 nm, an emission maximum (in C1CCOC1) of 484 nm and an emission maximum (in C1COCCO1) of 493 nm. For the same compound, the emission maximum (in CC#N) was 492 nm, the emission maximum (in CCCCCC) was 464 nm and the emission maximum (in CO) was 487 nm. For the same compound, the emission maximum (in ClC(Cl)Cl) was 469 nm.

Compound `CN(C)c1ccc(/C=C/c2nc3ccc(Br)cc3nc2-c2ccccc2)cc1` has an emission maximum (in C1COCCO1) of 555 nm, an emission maximum (in CC#N) of 648 nm and an emission maximum (in ClCCl) of 602 nm.

`C(=C\c1ncc(-c2ccc(OCc3ccccc3)c(OCc3ccccc3)c2)o1)/c1cccc(N2CCCC2)c1` gave an emission maximum (in ClCCl) of 485 nm.

Compound `CCCCCCCCCCCCN1C(=O)c2c(c3ccc4cc(-c5ccc(N(C)C)cc5)c(OC)cc4c3c3c2ccc2cc(-c4ccc(N(C)C)cc4)c(OC)cc23)C1=O` has an emission maximum (in ClCCl) of 620 nm.

`CC1(C)c2ccccc2-c2cc3c(cc21)c1ccccc1n3-c1ccc2ccccc2n1` gave an emission maximum (in ClCCl) of 438 nm.

With `Cc1ccc2nc3c(=O)[nH]c(=O)[nH]c3nc2c1C` the emission maximum (in CC#N) was 461 nm.

Compound `COc1ccc(C2=C(C)C3=C(c4c(-c5ccccn5)nc5ccccn45)c4c(C)c(-c5ccc(OC)cc5)c(C)n4[B-](F)(F)[N+]3=C2C)cc1` has an emission maximum (in ClCCl) of 608 nm.

`CCn1c(-c2ccc(-c3ccc(-c4ccc(-c5n(CC)c6ccccc6[n+]5CC)cc4)cc3)cc2)[n+](CC)c2ccccc21` gave an emission maximum (in O) of 397 nm.

With `CN(C)c1ccc(-c2ccc(-c3cc(-c4ccccc4)c(-c4ccccc4)c(-c4ccccc4)c3-c3ccccc3)nc2)cc1` the emission maximum (in ClC(Cl)Cl) was 429 nm.

For `c1csc(-c2ccc(-c3ccc(-c4cccs4)s3)s2)c1`, the emission maximum (in CCCCCCCCCCCCCC) was 474 nm and the emission maximum (in ClCCl) was 480 nm.

`COc1ccc(-c2ccc(/C=C/c3ccncn3)cc2)cc1` showed an emission maximum (in ClCCl) of 447 nm.

`COc1ccc(-c2ccc3c(c2)c2cc(-c4ccc(OC)cc4)ccc2n3-c2ccc(C(=O)c3ccc4sc5ccccc5c4c3)cc2)cc1` gave an emission maximum (in Cc1ccccc1) of 460.87 nm and an emission maximum (in c1cc(-n2c3ccccc3c3ccccc32)cc(-n2c3ccccc3c3ccccc32)c1) of 462 nm.

With `Cc1cc(C)n2c1C=[N+]1[N+](=C3C=NC=CN3[B-]1(F)F)[B-]2(F)F` the emission maximum (in ClCCl) was 490 nm.

In the case of `COc1ccc(-c2csc(-c3ccncc3)n2)cc1`, the emission maximum (in CC#N) is reported as 560 nm, the emission maximum (in CCO) is reported as 457 nm and the emission maximum (in CN(C)C=O) is reported as 451 nm. It also gave an emission maximum (in CS(C)=O) of 455 nm, an emission maximum (in Cc1ccccc1) of 415 nm and an emission maximum (in ClCCl) of 548 nm.
